The results in this text go back to patent publication US10206399B2, “Herbicidal composition comprising uracil compound as active ingredient” (Dongbu Farm Hannong Co., Ltd., priority 2012, dated 2019).

Where two headings read alike, the source gives them in different places.

For series [1], the system named is Echinochloa crus. As to the kind of experiment: Dry field farming herbicidal composition test, plant mortality. The class given is in vivo.
From the text: (§1) X is % damage by uracil compound (a) of formula 1 at the rate of application of p kg/ha; Y is % damage by conventional herbicidal compound (b) at the rate of application of q kg/ha; and E is the expected damage caused by compounds (a) and (b) at a rate of application of p and q kg/ha.
(§2) The expected activity for a given combination of two herbicides can be calculated using equation 1 above.
Series [2] deals with Digitaria sanguinalis. Described as above. The class given is in vivo.
From the text: as §1, §2
Series [3] concerns Abutilon theophrasti. Described as above. The class given is in vivo.
From the text: as §1, §2
Series [4] concerns Aeschynomene indica. The series is described as above. The class given is in vivo.
From the text: as §1, §2
For series [5], the system named is Echinochloa crus. The note with it: for plant mortality, measured value: Echinochloa crus.
From the text: as §1, §2
In series [6] the test system is Digitaria sanguinalis. Particulars: for plant mortality, measured value: Digitaria sanguinalis.
From the text: as §1, §2
Series [7] relates to Abutilon theophrasti. As to the kind of experiment: whole plant or invertebrate. Particulars: for pest or weed control at 25 g/ha: read-out: Data (measured value) Abutilon theophrasti, 25 g/ha.
From the text: as §1, §2
In series [8] the test system is Aeschynomene indica. Briefly: whole plant or invertebrate. The note with it: for pest or weed control at 25 g/ha: read-out: Data (measured value) Aeschynomene indica, 25 g/ha.
From the text: as §1, §2
The test system of another series is Xanthium spinosum. As to the kind of experiment: whole plant or invertebrate. The note with it: for pest or weed control at 25 g/ha: read-out: Data (measured value) Xanthium spinosum, 25 g/ha.
Setting [9] is: Echinochloa, read-out: Echinochloa crus mortality, measured value.
Where [10] appears, read: Digitaria sanguinalis, read-out: Digitaria sanguinalis mortality, measured value.
Setting [11] is: Abutilon theophrasti, read-out: Abutilon theophrasti mortality, measured value.
[12] abbreviates: Aeschynomene indica, read-out: Aeschynomene indica mortality, measured value.
Setting [13] is: read-out: Data (measured value) Abutilon theophrasti, 50 g/ha.
Where [14] appears, read: read-out: Data (measured value) Abutilon theophrasti, 100 g/ha.
[15] abbreviates: read-out: Data (measured value) Aeschynomene indica, 50 g/ha.
Where [16] appears, read: read-out: Data (measured value) Aeschynomene indica, 100 g/ha.
The mark [17] stands for this setting: read-out: Data (measured value) Xanthium spinosum, 50 g/ha.
Where [18] appears, read: read-out: Data (measured value) Xanthium spinosum, 100 g/ha.
[19] abbreviates: read-out: plant mortality, measured value, 375 g/ha.
Where [20] appears, read: read-out: plant mortality, measured value, 750 g/ha.
Setting [21] is: read-out: plant mortality, measured value, 1500 g/ha.
[22] abbreviates: read-out: plant mortality, measured value, 50 g/ha.
[23] abbreviates: read-out: plant mortality, measured value, 100 g/ha.
Setting [24] is: read-out: plant mortality, measured value, 200 g/ha.

From the text for Xanthium spinosum: as §1, §2

As for `COc1ncc(F)c2nc(S(=O)(=O)Nc3c(F)cccc3F)nn12` [Florasulam], the Echinochloa crus mortality, measured value in the series with Echinochloa crus [1] (1 g/ha), in the series on Echinochloa crus [1] (2 g/ha) and with Echinochloa crus [1] (4 g/ha) was 0% throughout. Also, the Digitaria sanguinalis mortality, measured value in the series on Digitaria sanguinalis [2] (1 g/ha), with Digitaria sanguinalis [2] (2 g/ha) and with Digitaria sanguinalis [2] (4 g/ha) was 0% throughout. The “Abutilon theophrasti mortality, measured value” was determined as 12 in the series with Abutilon theophrasti [3] (1 g/ha), 23 with Abutilon theophrasti [3] (2 g/ha) and 54 in the series with Abutilon theophrasti [3] (4 g/ha). The Aeschynomene indica mortality, measured value in the series with Aeschynomene indica [4] (1 g/ha) is 8%; in the series with Aeschynomene indica [4] (2 g/ha), 18%; in the series on Aeschynomene indica [4] (4 g/ha) it was 46%. Besides, the “Corn mortality, measured value” in the series with corn (1 g/ha), in the series on corn (2 g/ha) and in the series on corn (4 g/ha) was 0 in each case.

Consider `CC(C)N(C(=O)COc1nnc(C(F)(F)F)s1)c1ccc(F)cc1` [Flufenacet], for which the pest or weed control at 87.5 g/ha is 7% with Echinochloa crus [1] (setting [9]), 7% in the series with Digitaria sanguinalis [2] (setting [10]), 9% in the series on Abutilon theophrasti [3] (setting [11]) and 6% with Aeschynomene indica [4] (setting [12]). The pest or weed control at 175 g/ha was determined as 24% with Echinochloa crus [1] (setting [9]), 22% in the series on Digitaria sanguinalis [2] (setting [10]), 23% with Abutilon theophrasti [3] (setting [11]) and 18% with Aeschynomene indica [4] (setting [12]). Also, the pest or weed control at 350 g/ha came to 50% with Echinochloa crus [1] (setting [9]), 53% in the series with Digitaria sanguinalis [2] (setting [10]), 46% in the series on Abutilon theophrasti [3] (setting [11]) and 46% in the series on Aeschynomene indica [4] (setting [12]). Moreover, the “Corn mortality, measured value” with corn (87.5 g/ha) is 0; with corn (175 g/ha) it was 0; in the series with corn (350 g/ha), 1.

For `Cc1cc(Cl)ccc1OC(C)C(=O)O` (stereo not drawn) [Mecoprop], the “Data (measured value) Echinochloa crus” value with Echinochloa crus [5] (200 g/ha), with Echinochloa crus [5] (400 g/ha) and in the series with Echinochloa crus [5] (800 g/ha) was 0 each time. The “Data (measured value) Digitaria sanguinalis” value with Digitaria sanguinalis [6] (200 g/ha), in the series on Digitaria sanguinalis [6] (400 g/ha) and in the series with Digitaria sanguinalis [6] (800 g/ha) was 0 each time. For the same compound, the pest or weed control at 200 g/ha with Abutilon theophrasti [7] (read-out: Data (measured value) Abutilon theophrasti, 200 g/ha) is 14%; in the series on Aeschynomene indica [8] (read-out: Data (measured value) Aeschynomene indica, 200 g/ha), 8%; in the series with Xanthium spinosum (read-out: Data (measured value) Xanthium spinosum, 200 g/ha), 9%. The pest or weed control at 400 g/ha came out at 29% with Abutilon theophrasti [7] (read-out: Data (measured value) Abutilon theophrasti, 400 g/ha); 24% with Aeschynomene indica [8] (read-out: Data (measured value) Aeschynomene indica, 400 g/ha); 19% in the series on Xanthium spinosum (read-out: Data (measured value) Xanthium spinosum, 400 g/ha). Further, the pest or weed control at 800 g/ha was determined as 64% with Abutilon theophrasti [7] (read-out: Data (measured value) Abutilon theophrasti, 800 g/ha); 55% in the series with Aeschynomene indica [8] (read-out: Data (measured value) Aeschynomene indica, 800 g/ha); 45% in the series on Xanthium spinosum (read-out: Data (measured value) Xanthium spinosum, 800 g/ha).

Turning to `Nc1c(Cl)c(Cl)nc(C(=O)O)c1Cl` [Picloram], the “Data (measured value) Echinochloa crus” value in the series on Echinochloa crus [5] (25 g/ha), with Echinochloa crus [5] (50 g/ha) and with Echinochloa crus [5] (100 g/ha) was 0 in each case. Besides, the “Data (measured value) Digitaria sanguinalis” value in the series with Digitaria sanguinalis [6] (25 g/ha), in the series with Digitaria sanguinalis [6] (50 g/ha) and in the series with Digitaria sanguinalis [6] (100 g/ha) was 0 in each case. Besides, the pest or weed control at 25 g/ha with Abutilon theophrasti [7], in the series with Aeschynomene indica [8] and in the series with Xanthium spinosum was 9% in each case. Moreover, the pest or weed control at 50 g/ha with Abutilon theophrasti [7] (setting [13]) was 28%; in the series on Aeschynomene indica [8] (setting [15]) it was 21%; with Xanthium spinosum (setting [17]), 26%. Further, the pest or weed control at 100 g/ha in the series on Abutilon theophrasti [7] (setting [14]) turned out to be 65%; in the series with Aeschynomene indica [8] (setting [16]), 52%; in the series with Xanthium spinosum (setting [18]), 56%.

For the compound `CCc1cc(C)cc(CC)c1-c1c(OC(=O)C(C)(C)C)n2n(c1=O)CCOCC2` [Pinoxaden], the “Data (measured value) Echinochloa crus” value with Echinochloa crus [5] (6.25 g/ha) turned out to be 10; in the series with Echinochloa crus [5] (12.5 g/ha), 29; with Echinochloa crus [5] (25 g/ha) it was 63. The “Data (measured value) Digitaria sanguinalis” value with Digitaria sanguinalis [6] (6.25 g/ha) is recorded as 12; in the series on Digitaria sanguinalis [6] (12.5 g/ha) it was 26; in the series with Digitaria sanguinalis [6] (25 g/ha), 57. The pest or weed control at 6.25 g/ha in the series on Abutilon theophrasti [7] (read-out: Data (measured value) Abutilon theophrasti, 6.25 g/ha) worked out at 0%; in the series on Aeschynomene indica [8] (read-out: Data (measured value) Aeschynomene indica, 6.25 g/ha), 0%; in the series on Xanthium spinosum (read-out: Data (measured value) Xanthium spinosum, 6.25 g/ha) it was 0%. In addition, the pest or weed control at 12.5 g/ha in the series with Abutilon theophrasti [7] (read-out: Data (measured value) Abutilon theophrasti, 12.5 g/ha) was 0%; in the series with Aeschynomene indica [8] (read-out: Data (measured value) Aeschynomene indica, 12.5 g/ha), 0%; with Xanthium spinosum (read-out: Data (measured value) Xanthium spinosum, 12.5 g/ha), 0%. Moreover, the pest or weed control at 25 g/ha in the series with Abutilon theophrasti [7], with Aeschynomene indica [8] and with Xanthium spinosum was 0% throughout.

With `CCC(=O)Nc1ccc(Cl)c(Cl)c1` [Propanil], the “plant mortality, measured value” in the series with Echinochloa crus [5] (375 g/ha) came to 11; with Echinochloa crus [5] (750 g/ha), 21; with Echinochloa crus [5] (1500 g/ha) it was 46; in the series on Digitaria sanguinalis [6] (375 g/ha), 7; in the series on Digitaria sanguinalis [6] (750 g/ha), 22; in the series with Digitaria sanguinalis [6] (1500 g/ha), 45. The pest or weed control at 375 g/ha in the series on Abutilon theophrasti [7] (setting [19]), in the series with Aeschynomene indica [8] (setting [19]) and in the series with Xanthium spinosum (setting [19]) was 10% in each case. Moreover, the pest or weed control at 750 g/ha in the series on Abutilon theophrasti [7] (setting [20]) was determined as 23%; with Aeschynomene indica [8] (setting [20]), 27%; in the series on Xanthium spinosum (setting [20]), 24%. For the same compound, the pest or weed control at 1500 g/ha in the series with Abutilon theophrasti [7] (setting [21]) worked out at 56%; in the series with Aeschynomene indica [8] (setting [21]), 56%; in the series on Xanthium spinosum (setting [21]), 58%.

As for `O=C(O)c1c(Cl)ccc2cc(Cl)cnc12` [Quinclorac], the “plant mortality, measured value” is given as 13 in the series with Echinochloa crus [5] (50 g/ha); 26 in the series with Echinochloa crus [5] (100 g/ha); 55 in the series with Echinochloa crus [5] (200 g/ha); 6 in the series on Digitaria sanguinalis [6] (50 g/ha); 21 in the series with Digitaria sanguinalis [6] (100 g/ha); 49 in the series on Digitaria sanguinalis [6] (200 g/ha). The pest or weed control at 50 g/ha with Abutilon theophrasti [7] (setting [22]) worked out at 9%; in the series with Aeschynomene indica [8] (setting [22]), 10%; in the series on Xanthium spinosum (setting [22]) it was 11%. Further, the values for the pest or weed control at 100 g/ha in the series on Abutilon theophrasti [7] (setting [23]), in the series on Aeschynomene indica [8] (setting [23]) and with Xanthium spinosum (setting [23]) were 26%, 27% and 29%, respectively. Besides, the pest or weed control at 200 g/ha in the series with Abutilon theophrasti [7] (setting [24]) turned out to be 57%; with Aeschynomene indica [8] (setting [24]), 57%; in the series with Xanthium spinosum (setting [24]), 62%.

For `CCO/N=C(\CC)C1=C(O)CC(c2c(C)cc(C)cc2C)CC1=O` (stereo not drawn) [Tralkoxydim], the entries for the “Data (measured value) Echinochloa crus” value with Echinochloa crus [5] (25 g/ha), in the series on Echinochloa crus [5] (50 g/ha) and in the series with Echinochloa crus [5] (100 g/ha) were 10, 24 and 56, respectively. For the same compound, the “Data (measured value) Digitaria sanguinalis” value stood at 8 in the series on Digitaria sanguinalis [6] (25 g/ha), 21 in the series with Digitaria sanguinalis [6] (50 g/ha) and 47 in the series on Digitaria sanguinalis [6] (100 g/ha). Also, the pest or weed control at 25 g/ha with Abutilon theophrasti [7], in the series with Aeschynomene indica [8] and in the series with Xanthium spinosum was 0% in each case. In addition, the pest or weed control at 50 g/ha with Abutilon theophrasti [7] (setting [13]), in the series on Aeschynomene indica [8] (setting [15]) and in the series with Xanthium spinosum (setting [17]) was 0% throughout. Besides, the pest or weed control at 100 g/ha in the series on Abutilon theophrasti [7] (setting [14]), in the series on Aeschynomene indica [8] (setting [16]) and in the series with Xanthium spinosum (setting [18]) was 0% throughout.

Regarding `O=C(O)COc1nc(Cl)c(Cl)cc1Cl` [Triclopyr], the “Data (measured value) Echinochloa crus” value with Echinochloa crus [5] (125 g/ha), in the series with Echinochloa crus [5] (250 g/ha) and with Echinochloa crus [5] (500 g/ha) was 0 throughout. Further, the “Data (measured value) Digitaria sanguinalis” value in the series on Digitaria sanguinalis [6] (125 g/ha), in the series with Digitaria sanguinalis [6] (250 g/ha) and in the series with Digitaria sanguinalis [6] (500 g/ha) was 0 throughout. Besides, the pest or weed control at 125 g/ha in the series on Abutilon theophrasti [7] (read-out: Data (measured value) Abutilon theophrasti, 125 g/ha) was found to be 11%; with Aeschynomene indica [8] (read-out: Data (measured value) Aeschynomene indica, 125 g/ha) it was 9%; in the series on Xanthium spinosum (read-out: Data (measured value) Xanthium spinosum, 125 g/ha) it was 13%. Moreover, the pest or weed control at 250 g/ha in the series on Abutilon theophrasti [7] (read-out: Data (measured value) Abutilon theophrasti, 250 g/ha) turned out to be 23%; in the series on Aeschynomene indica [8] (read-out: Data (measured value) Aeschynomene indica, 250 g/ha), 26%; in the series with Xanthium spinosum (read-out: Data (measured value) Xanthium spinosum, 250 g/ha), 30%. Also, the pest or weed control at 500 g/ha in the series on Abutilon theophrasti [7] (read-out: Data (measured value) Abutilon theophrasti, 500 g/ha) was 54%; in the series on Aeschynomene indica [8] (read-out: Data (measured value) Aeschynomene indica, 500 g/ha) it was 58%; in the series with Xanthium spinosum (read-out: Data (measured value) Xanthium spinosum, 500 g/ha), 59%.
